{"source": "ChEMBL document CHEMBL1240510", "about": "“Synthesis, stereochemical separation, and biological evaluation of selective inhibitors of human MAO-B: 1-(4-arylthiazol-2-yl)-2-(3-methylcyclohexylidene)hydrazines” (J Med Chem, 2010)", "data": [{"target": "T1, Amine oxidase [flavin-containing] A (Homo sapiens, UniProt P21397)", "T1 sequence (P21397 whole entry)": "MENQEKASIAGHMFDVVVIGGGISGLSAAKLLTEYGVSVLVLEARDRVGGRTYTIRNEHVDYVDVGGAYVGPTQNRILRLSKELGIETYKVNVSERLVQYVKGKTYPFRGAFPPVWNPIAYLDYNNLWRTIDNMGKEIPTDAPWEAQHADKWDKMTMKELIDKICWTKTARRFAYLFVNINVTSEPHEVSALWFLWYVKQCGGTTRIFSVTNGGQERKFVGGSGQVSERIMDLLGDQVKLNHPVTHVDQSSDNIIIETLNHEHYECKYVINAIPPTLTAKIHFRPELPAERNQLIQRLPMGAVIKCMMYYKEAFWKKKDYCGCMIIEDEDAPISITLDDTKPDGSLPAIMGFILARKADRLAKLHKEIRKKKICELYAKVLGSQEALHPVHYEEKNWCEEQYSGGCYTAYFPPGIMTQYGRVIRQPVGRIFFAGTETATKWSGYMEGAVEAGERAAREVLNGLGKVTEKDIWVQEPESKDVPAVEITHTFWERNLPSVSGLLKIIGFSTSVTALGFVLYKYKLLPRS", "assay": "biochemical", "type": "cell-based, BTI-TN-5B1-4", "units": {"IC50": "µM"}, "values": [{"smiles": "CC1CCC/C(=N/Nc2nc(-c3ccccc3)cs2)C1", "note": "(centres undefined)", "IC50": 37.8}, {"smiles": "C[C@@H]1CCC/C(=N/Nc2nc(-c3ccccc3)cs2)C1", "IC50": 38.6}, {"smiles": "CC1CCC/C(=N/Nc2nc(-c3ccc(Cl)cc3Cl)cs2)C1", "note": "(centres undefined)", "IC50": 43.8}, {"smiles": "C[C@@H]1CCC/C(=N/Nc2nc(-c3ccc(Cl)cc3Cl)cs2)C1", "IC50": 40.6}, {"smiles": "COc1ccc(-c2csc(N/N=C3/CCC[C@@H](C)C3)n2)cc1", "IC50": 4.26}, {"smiles": "CC1CCC/C(=N/Nc2nc(-c3ccc(C#N)cc3)cs2)C1", "note": "(centres undefined)", "IC50": 20.6}, {"smiles": "C[C@@H]1CCC/C(=N/Nc2nc(-c3ccc(C#N)cc3)cs2)C1", "IC50": 21.9}, {"smiles": "CC1CCC/C(=N/Nc2nc(-c3ccc(Cl)cc3)cs2)C1", "note": "(centres undefined)", "IC50": 23.1}, {"smiles": "C[C@@H]1CCC/C(=N/Nc2nc(-c3ccc(Cl)cc3)cs2)C1", "IC50": 22.8}]}]}
